# Experimental data published in ChEMBL document CHEMBL3865788, “Synthesis, characterization and interaction studies of 1,3,4-oxadiazole derivatives of fatty acid with human serum albumin (HSA): A combined multi-spectroscopic and molecular docking study” (Eur J Med Chem, 2016).
# Key:
# Assay type in all cases: ADME
# Conditions in all cases: isolated protein
# Albumin [1] = molecular target: T1, Albumin (Homo sapiens, UniProt P02768); assay: Binding affinity to human serum albumin assessed as Stern-Volmer quenching constant in steady state at 298K and pH 7.4 by fluorescence spectroscopy
# Albumin [2] = molecular target: T1, Albumin; assay: Binding affinity to human serum albumin assessed as quenching constant in steady state at 298K and pH 7.4 by fluorescence spectroscopy
# Albumin [3] = molecular target: T1, Albumin; assay: Binding affinity to human serum albumin assessed as absorbance at 280 nanometer at 50 and 100 uM by UV-vis spectroscopy
# Albumin [4] = molecular target: T1, Albumin; assay: Binding affinity to human serum albumin assessed as binding constant in steady state at 298K and pH 7.4 by fluorescence spectroscopy
# T1 sequence (P02768 whole entry): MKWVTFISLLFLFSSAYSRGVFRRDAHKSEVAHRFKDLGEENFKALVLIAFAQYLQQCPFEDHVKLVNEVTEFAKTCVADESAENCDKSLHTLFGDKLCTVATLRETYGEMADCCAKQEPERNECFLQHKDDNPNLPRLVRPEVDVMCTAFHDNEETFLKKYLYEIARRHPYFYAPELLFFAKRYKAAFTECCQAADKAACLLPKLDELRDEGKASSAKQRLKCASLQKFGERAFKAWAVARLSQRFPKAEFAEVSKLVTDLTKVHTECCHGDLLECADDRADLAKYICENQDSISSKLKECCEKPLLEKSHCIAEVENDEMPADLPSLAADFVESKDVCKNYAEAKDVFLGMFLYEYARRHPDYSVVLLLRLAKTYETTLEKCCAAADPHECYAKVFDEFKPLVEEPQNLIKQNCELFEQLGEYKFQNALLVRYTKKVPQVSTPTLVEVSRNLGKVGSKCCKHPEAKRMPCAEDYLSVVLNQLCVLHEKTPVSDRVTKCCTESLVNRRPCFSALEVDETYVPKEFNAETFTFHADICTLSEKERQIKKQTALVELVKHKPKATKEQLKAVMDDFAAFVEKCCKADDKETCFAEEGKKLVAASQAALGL
compound,measurement,setting,value
CCCCCCCC/C=C\CCCCCCCc1nnc(C)o1,KSV,Albumin [1],3.6 ×10³ /M
same,Kq,Albumin [2],6.4 ×10¹¹ /M/s
same,Activity,Albumin [3],< 0.03
same,Kb,Albumin [4],2.95 ×10³ /M
